Data set [1] is described as follows: safety and adverse effects in the autistic disorder trial. In kind it is in vivo, human. As to conditions: idiopathic ASD, nine patients, range 600-1,998 mg/day. How it is done:
A 12-week single-blind, placebo-controlled trial of the effect of acamprosate in the treatment of 12 youths with autistic disorder aged 5 to 17 years was carried out. In order to pilot test use of acamprosate in youth with autism targeting core social impairment, was conducted. All subjects and their family members were blinded to treatment status. All subjects participated in a 2 week placebo-lead-in phase prior to 10 weeks of treatment with acamprosate. For this project, enteric coated commercially available 333 mg acamprosate pills were over-encapsulated and identical matching placebo manufactured for the project. Placebo-responders, defined by a Clinical Global Impressions Improvement scale (CGI-I) score of 1 “very much improved” or 2 “much improved” (ratings anchored to core social deficits) at week 2 were asked to exit the study. During active treatment with acamprosate, dosing was increased in 333 mg increments per week over the first six weeks of active treatment to a maximum dose of 1,332 mg/day (weight<5 60 kg) or 1,998 mg/day (weight>60 kg). During the final four weeks of active drug treatment, subjects were maintained on a stable highest tolerated (optimal) dose. The primary outcome measure was the clinician-rated CGI-I anchored to symptoms of social impairment. […]

The subject of data set [2] is GABA(A). As to conditions: animal studies; cited from earlier work.
For data set [3], the system named is adult males diagnosed with FXS. As to conditions: 3 adult males, cited from earlier work.
The subject of data set [4] is alcohol intake. Conditions: mouse, in vivo; cited from earlier work.
Data set [5] has as its system leptin, beta endorphin, cortisol. As to conditions: humans with alcohol dependence; cited from earlier work.
A short description of data set [6]: safety measures and adverse effects in the FXS trial. Type of data set: in vivo, human. The text has this: Safety assessment and monitoring began at screen when all subjects underwent a medical history, physical examination, and full psychiatric interview. A physical examination was also completed at end point. Vital signs, including height and weight, were obtained at each study visit. At screen, genetic testing for FXS was obtained if record of molecular testing utilizing Southern Blot and PCR was not available. At screen, week 6, and endpoint, laboratory tests of blood and urine, including CBC with differential and platelets, electrolyte panel, liver associated enzymes, lipid panel, and urine pregnancy test (in females) were obtained. An electrocardiogram was also obtained at screen and endpoint.
The pilot study ran for 10 weeks. Safety lab screens were carried out at weeks 6 and 10. Physiologic parameters measured during the safety screens were as follows: vital signs, LFTs, electrolyte panels, CBC with diff/plts, lipid panel, glucose, urinalysis and ECG.
In-person clinical visits were scheduled for every two weeks. Telephonic evaluations were carried out at weeks 1, 3, and 5. Each subject was evaluated for side effects at every interaction with the practitioner.

Data set [7] concerns ERK. As to the kind of experiment: striatum pERK/ERK in WT and fmr1 KO mice treated with acamprosate. Type of data set: in vivo. Details: ERK / Total: unit not given here. An excerpt:
FIG. 4. Bar graph of pERK activity measured in WT and fmr1 KO mice treated with acamprosate
Referring now to FIG. 4. A summary of data collected using mouse models for ASD to measure the effect of acamprosate on the levels of ERK activity in wild-type and fmr1 (fragile X gene) Knock Out mice.

Data set [8] relates to glutamate or GABA receptors subtypes. As to conditions: clinically relevant concentrations; cited from earlier work.
[9] abbreviates: STRIATUM, KO Acam, individual mice, listed as Acam.

“And” between values parts separate entries of the source, which are not always exact repeats. Identical values can stand only once. “Also recorded” adds a separate entry of the source.

As to `CC(=O)NCCCS(=O)(=O)O` [Acamprosate, 3-Acetamidopropane-1-sulfonic acid], the tolerability result in data set [1] was “well tolerated with no adverse effects leading to drug discontinuation or laboratory/vital sign abnormalities noted; also recorded: well tolerated with no adverse effects leading to drug discontinuation and no vital sign or safety laboratory changes noted”. For the same molecule, the “action at GABA(A)” value in data set [2] is reported as “exhibits GABA(A) agonism”. For the same molecule, the “clinical response measured by the CGI-I” value in data set [3] (mean dose 1,221 mg/day, mean duration 21.3 weeks) is recorded as “all 3 subjects showed significant positive clinical response”. Besides, the “subjects with non-treatment limiting gastrointestinal distress (emesis and/or nausea)” value in data set [3] is on record as “Two”. For the same molecule, the alcohol intake entry in data set [4] is listed as “reduced alcohol intake”. Also, the hormone levels entry in data set [5] is listed as “lowers levels of several hormones: leptin, beta endorphin, cortisol”. In data set [6] (10 weeks), the “changes in lipids, electrolytes, liver function tests, or blood counts” value is reported as “no clinically significant or mean changes” and the “changes in weight, pulse, or blood pressure” value is reported as “No clinically significant changes”. For the same molecule, in data set [6] (12 subjects), the “Increased body rocking (mild), Number of Patients” value was determined as 1 and the “subjects who experienced a mild adverse event” value amounted to 75%. Besides, in data set [6] (12 subjects, 10 weeks), the tolerability result is given as “well tolerated overall, with no severe or serious adverse effects”. The “changes on ECG including QTc interval” value in data set [6] (screen vs endpoint) is recorded as “No clinically significant changes were noted on ECG”. In data set [7] (setting [9]), the “A = ERK/Total” value was 1.31 and 1.57 and 2.78 and 2.43 and 2.19 and 2.25 and 1.71; the ERK is 24161 and 32570 and 26811 and 27464 and 25163 and 21441 and 25808; the Total was 18506 and 20784 and 9659 and 11290 and 11468 and 9535 and 15062; the pERK was 26311 and 37905 and 34961 and 25699 and 25451 and 19381 and 25020. In addition, the pERK/A in data set [7] (setting [9]) was 20152.78 and 24188.44 and 12595.14 and 10564.44 and 11599.26 and 8618.90 and 14602.11. In data set [7] (STRIATUM, KO Acam, individual mice, listed as acamp), the pERK/A is 20152.78 and 24188.44 and 12595.14 and 10564.44 and 11599.26 and 8618.90 and 14602.11. Besides, in data set [7] (STRIATUM, KO acamp, WT sal 14455.22, KO sal 21048.75, T Test 0.96 vs WT, 0.20 vs KO sal), the “pERK (group mean of pERK/A)” value amounted to 14617.30. Also, the “effect on ERK activation in fmr1 knockout animals” value in data set [7] (fmr1 knockout animals) is recorded as “restores activated ERK to wild-type levels”. For the same molecule, in data set [8], the “direct binding to glutamate or GABA receptors subtypes” value is listed as “no direct binding”.
